{"source": "paper PMC7100991", "about": "(PLoS Pathogens, 2020)", "target": "T1, Fusarium graminearum myosin I (FgMyoI) (Fusarium graminearum, UniProt I1RCT2)", "T1 construct": "gene FGRAMPH1_01T03465", "experiment": "biochemical", "data": [{"smiles": "CCOC(=O)/C(C#N)=C(\\N)c1ccccc1", "note": "[phenamacril]", "values": [{"measurement": "IC50", "value": 360, "unit": "nM"}]}]}
